From US5145872A, “Peptides with pharmaceutical activity” (Zambon Group, S.p.A., priority 1988, dated 1992)
Several values for one entry are separate records, joined by “and”; a condition that tells them apart may be missing. Equal entries are not always repeated. Entries after “also recorded” stand apart in the source; their conditions may differ.

Tests used:
[1] = tested on: methionine-enkephalin-induced analgesia; assay: Potentiation of methionine-enkephalin-induced analgesia (hot plate test), product given i.v.; type: in vivo, Male Swiss mice; settings: for Reaction time areas, Product: product alone
Procedure: (§1) Male Swiss mice (CD Charles River) weighing 22-24 g received intracerebroventricular (i.c.v.) injection of methionineenkephalin as described by Haley and Mc Cormick [Br. J. Pharmacol., 12, 12-15, (1957)].
(§2) Methionine-enkephalin was dissolved in distilled water and microinjected in a volume of 10 μl/mouse and in a dose analgesic in less than 30% of animals. The dose (10.25 or 50 μg/mouse) was chosen at the beginning of each experience depending on each batch's analgesic activity.
(§3) The antinociceptive effect was tested by the hot plate test as described by Eddy and Leimbach [(J. Pharmacol. Exptl. Therap., 107, 385-393, (1953)]. The time in seconds from contact with the plate (51.5° C.) to paw licking or Jumping accurrence was recorded as the response latency.
(§4) Animals were removed as soon as they reacted or after 30 seconds if they at 3, 6, 9, 12 and 15 minutes after the i.c.v. treatment and the latency times measured were used to calculate the reaction time areas. At first the compounds of formula I and Bestatin were administered simultaneously to methionine-enkephalin (dissolved in the same solution) by intracerebroventricular treatment to evaluate their activity without any interference due to absorbtion or diffusion through the blood-brain barrier.
Then the compounds of formula I and Bestatin were tested after intravenous (i.v.) administration to study their diffusion across blood-brain barrier.
The administration i.v. of the compounds of formula I and of Bestatin was simultaneous to methionine-enkephalin administration i.c.v.

[2] = tested on: methionine-enkephalin-induced analgesia; assay: Potentiation of methionine-enkephalin-induced analgesia (hot plate test), product given i.c.v.; type: in vivo, Male Swiss mice; settings: for Reaction time areas, Product Met-enk: product 0.16 μmoles i.c.v. together with Met-enk i.c.v., hot plate; for Reaction time areas, Product: product alone, 0.16 μmoles i.c.v., hot plate 51.5° C., 3-15 min
Procedure: as §1, §2, §3, §4

[3] = product 0.05 mmoles/kg i.v. simultaneous to Met-enk i.c.v.
[4] = product 0.08 mmoles/kg i.v. simultaneous to Met-enk i.c.v.

CC(C)C[C@H](NC(=O)[C@@H](O)[C@H](N)Cc1ccccc1)C(=O)O [Bestatin, [(2S,3R)-3-amino-2-hydroxy-4-phenyl-butanoyl]-L-leucine]
Activity of enhancing analgesia induced by opioids when administered by intravenous route ([1]; intravenous route, in words): practically inactive; also recorded: not active | Reaction time areas, Product Met-enk [1, 3]: 202 ± 6.9 | Reaction time areas, Product Met-enk [1, 4]: 212 ± 10.0 | Reaction time areas, Product ([1]; 0.05 mmoles/kg i.v.): 173 ± 3.7 | Reaction time areas, Product ([1]; 0.08 mmoles/kg i.v.): 182 ± 8.3 | Reaction time areas, Product Met-enk [2]: 268 ± 11.3 | Reaction time areas, Product [2]: 222 ± 13.3

CS(=O)(=O)c1ccc(C[C@@H](N)[C@H](O)C(=O)NC2(C(=O)O)CCCC2)cc1 [Compound 2, 1-[(2S,3R)-3-amino-2-hydroxy-4-(4-methylsulfonyl-phenyl)-butanoyl]-amino-1-cyclopentanecarboxylic acid]
Reaction time areas, Product Met-enk [1, 3]: 243 ± 15.9 | Reaction time areas, Product Met-enk [1, 4]: 233 ± 10.1 | Reaction time areas, Product ([1]; 0.05 mmoles/kg i.v.): 190 ± 7.8 | Reaction time areas, Product ([1]; 0.08 mmoles/kg i.v.): 191 ± 8.5

CS(=O)(=O)c1ccc(C[C@@H](N)[C@H](O)C(=O)NC2(C(=O)O)CCC2)cc1 [Compound 4, 1-[(2S,3R)-3-amino-2-hydroxy-4-(4-methylsulfonyl-phenyl)-butanoyl]-amino-1-cyclobutanecarboxylic acid]
Reaction time areas, Product Met-enk [2]: 290 ± 17.1 | Reaction time areas, Product [2]: 179 ± 9.9

Methionine-enkephalin [Met-enk]
Reaction time areas, Met-enk ([1]; Met-enk alone i.c.v., control group of each Table 2 experiment): 199 ± 14.0 and 197 ± 16.7 and 208 ± 8.3 and 200 ± 6.1 and 197 ± 9.7 | Reaction time areas, Met-enk ([2]; Met-enk alone i.c.v., control group of each Table 1 experiment): 207 ± 15.6 and 173 ± 11.2 and 188 ± 4.7
